Experimental data: US8106099B2, “Combination of phenylcarboxamides with blockers of the IKr channel and their use for the treatment of atrial arrhythmias” (Sanofi-Aventis Deutschland GmbH, priority 2003, dated 2012)
“Also recorded” adds a separate entry of the source.

Legend:
[1] = tested on: goats in persistent atrial fibrillation; experiment: Investigation of cardioversion and AFCL in chronically fibrillating goats (two goats); assay type: in vivo; conditions: for effect on the AFCL by the substance on its own (in words) / cardioversion / termination of persistent fibrillation by the substance on its own: persistent AF goat model; for cardioversion / termination of persistent fibrillation by the substance on its own: example 1 at 0.1-10 mg/kg/h in the goat of table 4
Procedure: Investigation of Cardioversion in Chronically Fibrillating Goats
Experiments were carried out on two goats which were in persistent atrial fibrillation of more than 45 days.
The measurements of the AFCL and of the cardioversion were carried out successively.

[2] = tested on: normal and remodeled atria of goats; experiment: Investigation of the refractory period (AERP) in normal goats and in goats with remodeled atria; assay type: in vivo; conditions: for effect on the AERP in remodeled atrium compared with normal atrium: remodeled versus normal atrium
Procedure: Investigation of the Refractory Period in Normal Goats and in Goats with Remodeled Atria
This electrical remodeling, which reflects the situation in the patient, was achieved by repetitive atrial stimulations as published by Wijffels et al. (Atrial fibrillation begets atrial fibrillation. A study in awake chronical instrumented goats. Circulation 1995, 92, 1954-68).
In the monotherapy, 0.12 mg of ibutilide per kg of bodyweight was administered over the length of time of 60 minutes (0.002 mg per kg per minute).
A similar infusion scheme was carried out on 5 further animals with dofetilide instead of ibutilide. […] In the monotherapy, 0.12 mg of dofetilide per kg of bodyweight was administered over the length of time of 60 minutes (0.002 mg per kg per minute).

Compound | effect on the AFCL by the substance on its own (in words) [1] | cardioversion / termination of persistent fibrillation by the substance on its own [1] | prolongation of the AERP ([2]; remodeled atria, n=5 goats, dofetilide study) [ms] | effect on the AERP in remodeled atrium compared with normal atrium [2] | doses of the compound of example 1 that brought about cardioversion / termination of the atrial fibrillation ([1]; goat of table 3, monotherapy, or combination with ibutilide 2 mg/kg) | dose of the Kv1.5 blocker of example 1 leading to cardioversion / termination of persistent fibrillation ([1]; summary in description, combination with very low doses (for example 10 μg/kg) of the IKr channel blocker) [mg/kg] | prolongation of the AERP ([2]; normal atria, n=5 goats, dofetilide study) [ms] | prolongation of the AERP ([2]; normal atria, n=7 goats, ibutilide study, relative to control before administration) [ms] | effective atrial refractory period (AERP), mean value ± SD ([2]; remodeled atria (induced AF 1 to 4 days), 7 goats, cycle length 400 ms, same infusion scheme with ibutilide) [ms] | effect on the AFCL by the substance on its own (in words) ([1]; listed as ibutilide) | prolongation of the AERP ([2]; remodeled atria, n=7 goats, ibutilide study) [ms]
CN(CCOc1ccc(NS(C)(=O)=O)cc1)CCc1ccc(NS(C)(=O)=O)cc1 [Dofetilide] | slight prolongation | a cardioversion does not occur; also recorded: not to a termination of the fibrillation | 7 | markedly lower |  |  |  |  |  |  | 
COc1ccc(CC(=O)NCc2ccccc2-c2ccccc2C(=O)NCCc2cccnc2)cc1 [Example 1, 2′-{[2-(4-Methoxyphenyl)acetylamino]methyl}biphenyl-2-carboxylic acid (2-pyridin-3-ylethyl)amide] | dose-dependent increase | not to cardioversion |  | markedly greater | 10 mg per kg of bodyweight per ho | 10 | 51 | 47 | 160 ± 16 |  | 
CCCCCCCN(CC)CCCC(O)c1ccc(NS(C)(=O)=O)cc1.O=C(O)/C=C/C(=O)O (centres unmarked) [Ibutilide] | very small increase | not to a termination of the fibrillation |  | markedly lower |  |  |  |  |  | slight prolongation | 5
